Measurements taken from patent US4298739A, “Novel carbostyril derivatives” (priority 1977, dated 1981).

Key:
[1] = Acute toxicity test, oral administration to mice; format: in vivo; conditions: mouse, in vivo, Male mice
Experimental: The test compounds were administered orally to the mice and LD50 (mg/kg) of the compounds was determined.

rabbit platelet [2] = assay: ADP-induced aggregation in rabbit platelets (AG-II Aggregometer); format: cell-based; conditions: Oryctolagus cuniculus, Platelet, read-out: Inhibition effect on ADP-induced aggregation in rabbit platelet; for inhibition at 10 µM (stock): 10^-5 mole; for inhibition at 1 µM (stock): 10^-6 mole; for inhibition at 100 µM (stock): 10^-4 mole
Experimental: (§1) The platelet aggregation inhibitory effect is measured by using AG-II Aggregometer (manufactured by Bryston Manufacturing Co.). The blood sample used for the test is a 1/9 (by volume) mixture of sodium citrate and whole blood collected from rabbit. Said sample is subjected to 10-minute centrifugal separation at 1,000 r.p.m. to obtain a platelet rich plasma (PRP). The thus obtained PRP is separated, and the remaining blood sample is further subjected to 15-minute centrifugal separation at 3,000 r.p.m. to obtain a platelet poor plasma (PPP).
(§2) The number of platelets in the PRP is counted by the Brecher-Clonkite Method, and the PRP is diluted with the PPP to prepare a PRP sample with platelet concentration of 300,000/mm^3 for the adenosine diphosphate (ADP)-induced aggregation test. There is also prepared a PRP sample with platelet concentration of 450,000/mm^3 for the collagen-induced aggregation test.
(§3) 0.6 ml of said PRP sample is added into 0.01 ml of a solution of a test compound of a predetermined concentration and the mixture is placed in a 37° C. thermostat for one minute. Then 0.07 ml of an ADP or collagen solution is added to the mixture. Transmittance of this mixture is determined and the change of transmittance is recorded by using the aggregometer at stirrer speed of 1,100 r.p.m. In this test, Auren Beronal buffer (pH 7.35) is used for the preparation of the ADP or collagen solution. ADP is adjusted to a concentration of 7.5×10^-5 M, and the collagen solution is prepared by triturating 100 mg of collagen with 5 ml of said buffer and the supernatant is used as collagen inducer. Adenosine and acetylsalicylic acid are used as controls for the ADP-induced aggregation test and the collagen-induced aggregation test, respectively. The platelet aggregation inhibitory effect is measured in terms of percent inhibition with respect to the aggregation rate of the controls. The aggregation rate is calculated from the following formula:
(§4) Aggregation rate=(c-a)/(b-a)×100
(§5) b: transmittance of PRP containing a test compound and an aggregation inducer
(§6) The inhibitory effect of the tested compounds on collagen-induced aggregation in rabbit platelets is shown in Table 1, and such effect on ADP-induced aggregation is shown in Table 2. The compounds tested are as follows.

rabbit platelet [3] = assay: Collagen-induced aggregation in rabbit platelets (AG-II Aggregometer); format: cell-based; parameters: inhibition: dose or concentration left out as unconfirmed; conditions: Oryctolagus cuniculus, Platelet, read-out: Inhibition effect on collagen induced aggregation in rabbit platelet; for inhibition at 10 µM (stock): 10^-5 mole; for inhibition at 1 µM (stock): 10^-6 mole; for inhibition at 100 µM (stock): 10^-4 mole
Experimental: as §1, §2, §3, §4, §5, §6

SMILES: CN(C(=O)CCCOc1ccc2[nH]c(=O)ccc2c1)C1CCC(O)CC1 (stereo not drawn) [compound 2, 6-{3-[N-Methyl-N-(4-hydroxycyclohexyl)aminocarbonyl]propoxy}carbostyril]
- LD50 [1]: > 1000 mg/kg
- inhibition at 10 µM (stock) (rabbit platelet [2]): 90.3%
- inhibition at 1 µM (stock) (rabbit platelet [2]): 54.3%
- inhibition at 10 µM (stock) (rabbit platelet [3]): 100%
- inhibition at 1 µM (stock) (rabbit platelet [3]): 89.7%

SMILES: COc1ccc(CCN(C)C(=O)CCCOc2ccc3[nH]c(=O)ccc3c2)cc1OC [compound 4, 6-{3-[N-Methyl-N-(2-3',4'-dimethoxyphenylethyl)aminocarbonyl]propoxy}carbostyril]
- LD50 [1]: > 1000 mg/kg
- inhibition at 100 µM (stock) (rabbit platelet [2]): 70.4%
- inhibition at 10 µM (stock) (rabbit platelet [2]): 16.1%
- inhibition at 1 µM (stock) (rabbit platelet [2]): 6.9%
- inhibition at 100 µM (stock) (rabbit platelet [3]): 82.9%
- inhibition at 10 µM (stock) (rabbit platelet [3]): 46.5%
- inhibition at 1 µM (stock) (rabbit platelet [3]): 19.2%

SMILES: O=C(CCCOc1ccc2[nH]c(=O)ccc2c1)N(Cc1ccccc1)C1CCCCC1 [compound 5, 6-{3-(N-Cyclohexyl-N-benzylaminocarbonyl)propoxy]carbostyril]
- LD50 [1]: > 1000 mg/kg
- inhibition at 10 µM (stock) (rabbit platelet [2]): 90.7%
- inhibition at 1 µM (stock) (rabbit platelet [2]): 61.2%
- inhibition at 0.1 µM (stock) (rabbit platelet [2]; 10^-7 mole): 18.9%
- inhibition at 10 µM (stock) (rabbit platelet [3]): 91.8%
- inhibition at 1 µM (stock) (rabbit platelet [3]): 88.4%
- inhibition at 0.1 µM (stock) (rabbit platelet [3]; 10^-7 mole): 30.6%

SMILES: CN(C(=O)CCCOc1ccc2[nH]c(=O)ccc2c1Cl)C1CCCCC1 [compound 6, 5-Chloro-6-[3-(N-methyl-N-cyclohexylaminocarbonyl)propoxy]carbostyril]
- LD50 [1]: > 1000 mg/kg
- inhibition at 100 µM (stock) (rabbit platelet [2]): 87.2%
- inhibition at 10 µM (stock) (rabbit platelet [2]): 5.4%
- inhibition at 100 µM (stock) (rabbit platelet [3]): 100%
- inhibition at 10 µM (stock) (rabbit platelet [3]): 53.3%
- inhibition at 1 µM (stock) (rabbit platelet [3]): 12.3%

SMILES: CCOC(=O)C(C)Oc1ccc2c(c1)CCC(=O)N2 (stereo not drawn) [compound 25, 6-(1-Ethoxycarbonylethoxy)-3,4-dihydrocarbostyril, reference compound]
- LD50 [1]: > 1000 mg/kg

SMILES: CCOC(=O)C(C)Oc1ccc2[nH]c(=O)ccc2c1 (stereo not drawn) [compound 26, 6-(1-Ethoxycarbonylethoxy)carostyril, reference compound]
- LD50 [1]: > 1000 mg/kg

SMILES: CCOC(=O)C(C)Oc1ccc2c(c1)CCC(=O)N2C (stereo not drawn) [compound 27, 1-Methyl-6-(1-ethoxycarbonylethoxy)-3,4-dihydrocarbostyril, reference compound]
- LD50 [1]: 800 to 1000 mg/kg

SMILES: CCOC(=O)C(C)Oc1ccc2c(c1)NC(=O)CC2 (stereo not drawn) [compound 28, 7-(1-ethoxycarbonylethoxy)-3,4-dihydrocarbostyril, reference compound]
- LD50 [1]: > 1000 mg/kg

SMILES: CCCCCOC(=O)C(C)Oc1ccc2c(c1)CCC(=O)N2 (stereo not drawn) [compound 30, 6-(1-Amyloxycarbonylethoxy)-3,4-dihydrocarbostyril, reference compound]
- LD50 [1]: > 1000 mg/kg

SMILES: CC(C)OC(=O)C(C)Oc1ccc2[nH]c(=O)ccc2c1 (stereo not drawn) [compound 31, 6-(1-Isopropoxycarbonylethoxy)carbostyril, reference compound]
- LD50 [1]: 900 to 1000 mg/kg

SMILES: CCOC(=O)CCCOc1cccc2c1CCC(=O)N2 [compound 32, 5-(3-Ethoxycarbonylpropoxy)-3,4-dihydrocarbostyril, reference compound]
- LD50 [1]: > 1000 mg/kg

SMILES: CCCCCOC(=O)CCCOc1ccc2c(c1)CCC(=O)N2 [compound 33, 6-(3-Amyloxycarbonylpropoxy)-3,4-dihydrocarbostyril, reference compound]
- LD50 [1]: > 1000 mg/kg

SMILES: CCOC(=O)CCCCCCOc1ccc2c(c1)CCC(=O)N2 [compound 35, 6-(6-Ethoxycarbonylhexyloxy)-3,4-dihydrocarbostyril, reference compound]
- LD50 [1]: 750 to 1000 mg/kg

SMILES: O=C(O)CCCCCCOc1ccc2c(c1)CCC(=O)N2 [compound 36, 6-(6-Carboxyhexyloxy)-3,4-dihydrocarbostyril, reference compound]
- LD50 [1]: > 1000 mg/kg

SMILES: CCOC(=O)C(C)Oc1cccc2c1NC(=O)CC2 (stereo not drawn) [compound 37, 8-(1-Ethoxycarbonylethoxy)-3,4-dihydrocarbostyril, reference compound]
- LD50 [1]: 900 to 1000 mg/kg

SMILES: CC(=O)Oc1ccccc1C(=O)O [compound 46, Aspirin, reference compound]
- inhibition at 100 µM (stock) (rabbit platelet [2]): 7%
- inhibition at 10 µM (stock) (rabbit platelet [2]): 0%
- inhibition (rabbit platelet [3]): 9%
